Measured values as given in US12109246B2, “Composition for the treatment and/or prevention of lower urinary tract symptoms” (SERELYS PHARMA S.A.M., priority 2019, dated 2024).

Target: T1, muscarinic M3 receptor (Homo sapiens, UniProt P20309)
T1 construct: using HEK293 cells which express the receptor endogenously; endogenous in cells; host or cells: HEK293
Assay: Antagonist activity on muscarinic M3 receptor, FLIPR Tetra calcium assay in HEK293 cells
Format: cell-based
Settings: antagonist mode versus carbachol at its EC50, HEK293 cells, calcium fluorescence

T1 sequence (P20309 whole entry): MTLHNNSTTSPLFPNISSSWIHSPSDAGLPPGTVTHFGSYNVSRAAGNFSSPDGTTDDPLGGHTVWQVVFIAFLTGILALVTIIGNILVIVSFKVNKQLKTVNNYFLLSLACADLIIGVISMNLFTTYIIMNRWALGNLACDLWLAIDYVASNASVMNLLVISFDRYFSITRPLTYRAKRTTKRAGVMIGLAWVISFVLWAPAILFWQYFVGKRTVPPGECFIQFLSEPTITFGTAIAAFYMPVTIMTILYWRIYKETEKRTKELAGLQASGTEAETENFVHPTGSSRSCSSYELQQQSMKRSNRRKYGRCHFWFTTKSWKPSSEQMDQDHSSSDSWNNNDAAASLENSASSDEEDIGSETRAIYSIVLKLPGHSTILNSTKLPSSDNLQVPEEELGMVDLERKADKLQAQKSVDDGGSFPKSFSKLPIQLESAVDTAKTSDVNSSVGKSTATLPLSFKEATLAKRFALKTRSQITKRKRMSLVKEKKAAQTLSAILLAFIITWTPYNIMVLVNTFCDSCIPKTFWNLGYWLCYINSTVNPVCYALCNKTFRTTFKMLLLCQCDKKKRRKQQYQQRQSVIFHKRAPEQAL

IC50: >1 µg/mL
Substance: Vitamin E [Vitamin E (as in Example 1)]
